Data as given in patent US20100197610A1, “FRUCTOSE 1, 6 BISPHOSPHATE - A NOVEL ANTICONVULSANT DRUG” (Baylor College of Medicine, priority 2007, published 2010).

Columns and labels:
[1] = tested on: brain slices; assay: Uptake of FDP in brain slices in vitro; type: in vitro ADME, Sprague-Dawley rats; details: incubation 1 hour in 500 μg ml-1 FDP, then washed
Protocol: Actual levels of FDP were determined by monitoring absorbance of reduced nicotinamide adenine dinucleotide (NADH) and treating the sample with aldolase (EC 4.1.2.13, 45 units mg-1 diluted 1:27 with distilled water), the enzyme which cleaves FDP into dihydroxyacetone phosphate (DAP) and D-glyceraldehyde 3-phosphate (GAP). DAP and GAP are interconverted by the enzyme triosephosphate isomerase (TIM, EC 5.3.3.1, 5290 units mg-1 diluted 1:120 with distilled water). Glycerol-3-phosphate dehydrogenase (GDH, EC 1.1.1.8, 252 units mg-1 diluted 1:100 with distilled water) catalyzes the reduction of DAP by NADH. […] After 5 min the absorbance was read 3 times at 340 nm, each reading 3 min apart. The average of these readings is the initial absorbance (Ai). This step removes any DAP or GAP in the sample and determines the baseline absorbance. […] Nine minutes after addition of the aldolase, the final absorbance (Af) was determined by 3 readings at 340 nm, each 6 minutes apart. The concentration of FDP in the sample was proportional to the difference in the initial and final absorbance. […] Levels of FDP in blood were determined per ml, while levels in tissue samples were determined as a function of tissue weight.
Additional experiments determined the uptake of FDP in brain slices in vitro. […]

[2] = Capillary depletion of brain samples (FDP in stripped vs whole cortex); type: in vivo, Sprague-Dawley rats
Protocol: Actual levels of FDP were determined by monitoring absorbance of reduced nicotinamide adenine dinucleotide (NADH) and treating the sample with aldolase (EC 4.1.2.13, 45 units mg-1 diluted 1:27 with distilled water), the enzyme which cleaves FDP into dihydroxyacetone phosphate (DAP) and D-glyceraldehyde 3-phosphate (GAP). DAP and GAP are interconverted by the enzyme triosephosphate isomerase (TIM, EC 5.3.3.1, 5290 units mg-1 diluted 1:120 with distilled water). […] After 5 min the absorbance was read 3 times at 340 nm, each reading 3 min apart. The average of these readings is the initial absorbance (Ai). This step removes any DAP or GAP in the sample and determines the baseline absorbance. Aldolase (0.01 ml) was then added and mixed to cleave FDP into DAP and GAP. Nine minutes after addition of the aldolase, the final absorbance (Af) was determined by 3 readings at 340 nm, each 6 minutes apart. The concentration of FDP in the sample was proportional to the difference in the initial and final absorbance. Two moles of NADH are oxidized for each mole of FDP. Blanks and a FDP standard sample were run in parallel with every assay. Each blank had 1.6 ml of the TEA buffer, 1.4 ml water and the mixture of TIM and GDH. […] Levels of FDP in blood were determined per ml, while levels in tissue samples were determined as a function of tissue weight. […]

O=C(COP(=O)(O)O)[C@@H](O)[C@H](O)[C@H](O)COP(=O)(O)O [F1,6BP, Fructose-1,6-bisphosphate]
tissue levels of FDP in brain slices [1]: 0.22 ± 0.013 mg/g
ratio of FDP in the stripped cortex to the FDP in whole cortex ([2]; animals treated with FDP, n=7): 0.91±0.01
levels of FDP in the endothelial cells compared to control ([2]; sacrificed ≦2 hours or more than 12 hours after FDP): no difference
